PMC6429600, “Development of a dual-functional conjugate of antigenic peptide and Fc-III mimetics (DCAF) for targeted antibody blocking” (Chemical Science, 2019)

Key:
Ab4 (mAb35 antibody) = assay: SPR binding to immobilized Ab4; details: mean ± SD (n = 3), read-out: Kd of Ab4 binding (apparent Kd for DCAF)
Ab1 (4G2 antibody) = assay: SPR binding to immobilized Ab1; parameters: species or system mouse; details: BIAcore T200, Ab1 immobilized on CM5 chip, PBS with 0.005% surfactant P20, 30 μl/min, mean ± SD (n = 3), read-out: Kd of Ab1 binding (apparent Kd for DCAF)
Protocol: (§1) Surface plasmon resonance (SPR) experiments were performed using a BIAcore T200 instrument (GE healthcare) equipped with a CM5 sensor chip. Briefly, Ab1, Ab2 or Ab3 were directly immobilized onto a CM5 sensor chip using an EDC/NHS amine coupling kit. A blank channel was used as the negative control. For SPR measurements, all peptides were directly dissolved in running buffer (PBS with 0.005% surfactant P20). The analytes were injected and disassociated with immobilized IgG at a flow rate of 30 μl min^–1. After each binding and dissociation cycle, the surface of a sensor chip was regenerated using 10 mM glycine-HCl buffer (pH 2.0). The sensorgrams were corrected by subtraction of the signal from the negative control flow path and curve-fitted to calculate the reaction rate and constants using Evaluation 1.0 software.

[1] = molecular target: Ab2 (monoclonal antibody raised against pep2); assay: SPR binding to immobilized Ab2; parameters: species or system mouse; details: BIAcore T200, Ab2 immobilized on CM5 chip, PBS with 0.005% surfactant P20, mean ± SD (n = 3), read-out: Kd of Ab2 binding (apparent Kd for DCAF)
Protocol: as §1

[2] = molecular target: Ab3 (monoclonal antibody raised against pep3); assay: SPR binding to immobilized Ab3; parameters: species or system mouse; details: BIAcore T200, Ab3 immobilized on CM5 chip, PBS with 0.005% surfactant P20, mean ± SD (n = 3), read-out: Kd of Ab3 binding (apparent Kd for DCAF)
Protocol: as §1

Ab2 = assay: ELISA competition assay of Ab2 binding to GST-fused pep2; assay type: biochemical, mouse; details: sandwich ELISA, GST-fused pep2, Ab2 10 nM, OD450
Protocol: A standard sandwich ELISA assay was used for competition experiment. Briefly, 96-well microtiter plates were coated overnight with anti-GST antibody (10 nM) at 4 °C and blocked with 200 μL of 1% BSA in PBS at room temperature for 1 h. Then the artificial antigen (0.5 nM), pep2 coupled with the GST protein, was added to the wells and incubated for 2 h at RT. The plates were washed with PBS/0.05% Tween 20, and Ab2 (10 nM) or Ab2 (10 nM) plus other ligands, antigen, Fc-III or DCAF2 at series concentrations, were added and incubated for 2 h at RT. […] For a C1q binding assay, rat C1q ELISA kit was used following the protocol of the manufacturer. Briefly, incubated 25 ng mL^–1 C1q and series concentrations of Ab4 or DCAF4 with a pre-coated C1q capture antibody for 2 h at RT. Then HRP linked detection antibody was added for 1 h at RT and the TMB substrate was used to measure the concentration of C1q at OD450.

[3] = molecular target: 4G2 antibody (Ab1), ADE-inducible mouse monoclonal IgG (mouse); assay: SPR; BIAcore T200; antibody (IgG) immobilised on a CM5 chip by EDC/NHS amine coupling; peptides as analytes in PBS with 0.005% surfactant P20, 30 ul/min; regeneration 10 mM glycine-HCl pH 2.0; apparent Kd for DCAF, bivalent fit gives Kd1 and Kd2
[4] = molecular target: mAb35 (Ab4), commercial antibody that blocks the acetylcholine receptor; assay: SPR

CC(C)C[C@@H]1NC(=O)[C@H](Cc2c[nH]cn2)NC(=O)[C@H](Cc2c[nH]c3ccccc23)NC(=O)[C@H](C)NC(=O)[C@@H]2CSSC[C@H](NC(=O)[C@H](Cc3c[nH]c4ccccc34)NC(=O)[C@H](C(C)C)NC(=O)[C@H](CC(C)C)NC(=O)[C@H](CCC(=O)O)NC(=O)CNC1=O)C(=O)N[C@@H]([C@@H](C)O)C(=O)N[C@H](C(=O)O)CSSC[C@H](N)C(=O)N[C@@H](CC(=O)O)C(=O)N2 [Fc-III-4C] was tested. Which Kd (Ab4 (mAb35 antibody)) did it give?
Its Kd is 13.99 ± 0.03 nM.

For CC(C)C[C@@H]1NC(=O)[C@H](Cc2c[nH]cn2)NC(=O)[C@H](Cc2c[nH]c3ccccc23)NC(=O)[C@H](C)NC(=O)[C@@H](NC(=O)[C@@H](N)CC(=O)O)CSSC[C@@H](C(=O)N[C@H](C(=O)O)[C@@H](C)O)NC(=O)[C@H](Cc2c[nH]c3ccccc23)NC(=O)[C@H](C(C)C)NC(=O)[C@H](CC(C)C)NC(=O)[C@H](CCC(=O)O)NC(=O)CNC1=O [Fc-III], which Kd (Ab1 (4G2 antibody)) is on record?
Its Kd is 239 ± 2 nM.

And the Kd [1]?
The Kd was 169 ± 18 nM.

What about the Kd [2] of the same compound?
The Kd was 134 ± 6 nM.

And the “inhibition of antigen–antibody (pep2–Ab2) binding” value (Ab2)?
Its value is “did not inhibit”.

With Fc-III peptide as the compound, how does the Kd [3] read?
Its Kd is 239 nM.

With Fc-III-4C peptide as the compound, how does the Kd [4] read?
The Kd was 14 nM.
